Experimental data: US9284296B2, “Bipyridine sulfonamide derivatives for the treatment of neurodegenerative diseases or conditions” (AUBERGINE PHARMACEUTICALS LLC, priority 2010, dated 2016)

System: SH-SY5Y human neuroblastoma cells
Assay: Protection against hydrogen peroxide-induced cell death
Assay type: cell-based
Details: Homo sapiens; SH-SY5Y cells, 1 h preincubation, 100 μM hydrogen peroxide, 24 h, LDH readout of live cells
Protocol: The aim of this assay is to determine the neuroprotective effect of the compounds when human neuroblastoma cells are exposed to the oxidative stress induced by hydrogen peroxide, which leads to cell death. Therefore the protective effect of the compounds was measured by monitoring cell survival using a suitable commercial kit (Cytotoxicity Detection Kit, Roche Diagnostics GmbH, Mannheim, Germany) based on the quantification of the lactate dehydrogenase activity obtained from lysates of the remaining live cells with a colorimetric assay yielding absorbance at 492 nm as the final readout.
SH-SY5Y human neuroblastoma cells were seeded into 96-well culture plate at a density of 10,000 cells/well. Cells were preincubated for one hour with different concentrations of the compound at a 1% (v/v) DMSO concentration in an equivolumetric mixture of Minimum Essential Medium (MEM) and Nutrient Mixture HAM F12 supplemented with 10% foetal bovine serum, 100 U/ml penicillin, 100 μg/ml streptomycin, 1 mM each of non-essential aminoacids (commercial preparation from GIBCO, Paisley, UK) and 2 mM L-glutamine. Hydrogen peroxide was then added to reach 100 μM and the incubation was extended for 24 h. Then the medium was removed and live cells, which remained attached to the bottom of the plate, were lysed by incubating them during 5 min with 50 μl of 1% (v/v) Triton X-100 in Krebs-Hepes buffer (10 mM Hepes pH7.3 with 145 mM NaCl, 5.5 mM KCl, 1 mM MgCl2, 2 mM CaCl2 and 1 mM glucose). This lysate was used to measure LDH activity using the commercial kit according to the manufacturer's instructions. In the culture plate several wells were included as a control of cell death, in these wells the cells were preincubated with 1% (v/v) DMSO before hydrogen peroxide addition. Likewise, several wells were included as control for full cell survival, in these wells the addition of H2O2 was omitted. The absorbance of each tested sample was normalized to that of the control wells, so that for every compound concentration the percentage of protective effect was calculated with the following equation:
[formula] where “S” is the absorbance of the sample being considered, “E” is the average absorbance of wells used as control of full cell survival and “B” is the average absorbance of wells used as control of cell death. The values obtained at every compound concentration were finally used to calculate the EC50 (i.e., the concentration causing 50% of protective effect) of the tested compound. For that purpose the data were fitted to a classical 4-parameters isotherm equation using the nonlinear regression function of GraphPad™ Prism 5.0 (GraphPad Software Inc.), such equation is described below:
[formula] where “L” is the lower asymptote of the theoretical sigmoidal curve, “H” is the higher asymptote, “C” is the concentration of compound and “n” is the Hill coefficient.

Row | Compound | EC50
1 | COc1cc(CNS(=O)(=O)c2cnc(Cl)s2)nc(-c2ccccn2)c1 [Compound 106] | 0.63 µM
2 | COc1cc(CNS(=O)(=O)c2cccc3scnc23)nc(-c2ccccn2)c1 [Compound 61] | 0.82 µM
3 | COc1cc(CNS(=O)(=O)c2ccc(-c3cnco3)s2)nc(-c2ccccn2)c1 [Compound 55] | 1.3 µM
4 | COc1cc(CNS(=O)(=O)c2cc(OC)ccc2OC)nc(-c2ccccn2)c1 [Compound 1, 2,5-Dimethoxy-N-(4-methoxy-[2,2′]bipyridinyl-6-ylmethyl)-benzenesulfonamide] | 36 µM
5 | COc1cc(CNS(=O)(=O)Cc2ccc(C(F)(F)F)cc2)nc(-c2ccccn2)c1 [Compound 23, N-(4-Methoxy-[2,2′]bipyridinyl-6-ylmethyl)-C-(4-trifluoromethyl-phenyl)-methanesulfonamide] | 2.91 µM
6 | COc1cc(CNS(=O)(=O)c2cccnc2)nc(-c2ccccn2)c1 [Compound 21, Pyridine-3-sulfonic acid (4-methoxy-[2,2′]bipyridinyl-6-ylmethyl)-amide] | 5.19 µM
7 | COc1cc(CNS(=O)(=O)c2ccc(C)s2)nc(-c2ccccn2)c1 [Compound 24, 5-Methyl-thiophene-2-sulfonic acid (4-methoxy-[2,2′]bipyridinyl-6-ylmethyl)-amide] | 3.46 µM
8 | COc1cc(CNS(=O)(=O)c2ccc3ccccc3c2)nc(-c2ccccn2)c1 [Compound 15, Naphthalene-2-sulfonic acid (4-methoxy-[2,2′]bipyridinyl-6-ylmethyl)-amide] | 4.8 µM
9 | COc1cc(CNS(=O)(=O)c2cccc3cccnc23)nc(-c2ccccn2)c1 [Compound 60] | 3.2 µM
10 | COc1cc(CNS(=O)(=O)c2ccc(-c3cc(C)no3)o2)nc(-c2ccccn2)c1 [Compound 79] | 0.72 µM
11 | COc1cc(CNS(=O)(=O)c2cccc(Cl)c2F)nc(-c2ccccn2)c1 [Compound 56] | 1.06 µM
12 | COc1cc(CNS(=O)(=O)c2cc(F)ccc2F)nc(-c2ccccn2)c1 [Compound 59] | 4.8 µM
13 | COc1cc(CNS(=O)(=O)c2cc3ccccc3o2)nc(-c2ccccn2)c1 [Compound 62] | 1.88 µM
14 | COc1cc(CNS(=O)(=O)C2CCCCC2)nc(-c2ccccn2)c1 [Compound 7, Cyclohexanesulfonic acid (4-methoxy-[2,2′]bipyridinyl-6-ylmethyl)-amide] | 11.2 µM
15 | COc1cc(CNS(=O)(=O)N2CCOCC2)nc(-c2ccccn2)c1 [Compound 20, Morpholine-4-sulfonic acid (4-methoxy-[2,2′]bipyridinyl-6-ylmethyl)-amide] | 5.1 µM
16 | COc1cc(CNS(=O)(=O)c2c(C)noc2C)nc(-c2ccccn2)c1 [Compound 54] | 23.1 µM
17 | COc1cc(CNS(=O)(=O)c2ccc(C)cc2)nc(-c2ccccn2)c1 [Compound 3, N-(4-Methoxy-[2,2′]bipyridinyl-6-ylmethyl)-4-methyl-benzenesulfonamide] | 23 µM
18 | COc1cc(CNS(=O)(=O)C(F)(F)F)nc(-c2ccccn2)c1 [Compound 17, C,C,C-Trifluoro-N-(4-methoxy-[2,2′]bipyridinyl-6-ylmethyl)-methanesulfonamide] | 0.82 µM
19 | COc1cc(CNS(C)(=O)=O)nc(-c2ccccn2)c1 [Compound 5, N-(4-Methoxy-[2,2′]bipyridinyl-6-ylmethyl)-methanesulfonamide] | 39.8 µM
20 | COc1cc(CNS(=O)(=O)c2c(F)cccc2F)nc(-c2ccccn2)c1 [Compound 58] | 1.6 µM
21 | COc1cc(CNS(=O)(=O)c2cccc(Cl)c2Cl)nc(-c2ccccn2)c1 [Compound 95] | 1.09 µM
22 | COc1cc(CNS(=O)(=O)c2ccc(Cl)cc2F)nc(-c2ccccn2)c1 [Compound 57] | 1.5 µM
23 | COc1cc(CNS(=O)(=O)c2ccc(S(C)(=O)=O)cc2)nc(-c2ccccn2)c1 [Compound 22, 4-Methanesulfonyl-N-(4-methoxy-[2,2′]bipyridinyl-6-ylmethyl)-benzenesulfonamide] | 0.88 µM
24 | COc1cc(CN(Cc2cc(OC)cc(-c3ccccn3)n2)S(=O)(=O)c2cccs2)nc(-c2ccccn2)c1 [Compound 25] | 4.95 µM

System: secretion of amyloid peptide β1-40 (Aβ1-40)
Assay: Inhibition of β-amyloid secretion (CHO7w cells stably transfected with human APP, ELISA)
Assay type: cell-based
Details: CHO-7W, 24 h incubation, range stated for the listed compounds together
Protocol: The inhibition caused by the compounds on the secretion of amyloid peptide β1-40 (Aβ1-40) was determined by measuring the levels of this peptide in cell supernatants after incubating the cells with several concentrations of the tested compound. A CHO7w cell line, stably transfected with human amyloid precursor protein (APP), was used. Cells were dispensed in 96-well culture plates (5,000 cells/well) and grown in DMEM supplemented with 2% (v/v) foetal bovine serum, 100 U/ml penicillin, 100 μg/ml streptomycin, 2 mM L-glutamine and 200 μg/ml G418 in the presence of several concentrations of the tested compound which had been previously dissolved in DMSO (1% (v/v) DMSO final concentration). After a 24 h incubation the amount of Aβ1-40 secreted to the medium was measured with an ELISA-based commercial kit (Human Amyloid β-40 ELISA High Sensitivity Kit, Millipore, Billerica, Mass., USA) using absorbance at 450 nm as the final readout. In the culture plate several wells were included as a control for lack of Aβ1-40 secretion, in these wells the cells were incubated in the presence of 16% (v/v) DMSO to inhibit cell growth therefore abolishing Aβ1-40 secretion. Likewise, several wells were also included as a control for full Aβ1-40 secretion, in these wells the cells were grown in the presence of 1% (v/v) DMSO. The absorbance of each tested sample was normalized to that of the control wells, so that for every compound concentration the percentage of inhibition was calculated with the following equation:
[formula] where “S” is the absorbance of the sample being considered, “E” is the average absorbance of wells lacking Aβ1-40 secretion and “B” is the average absorbance of wells with full Aβ1-40 secretion. The inhibition values obtained at every compound concentration were fitted to a 4-parameters isotherm equation, as described above, to calculate the […] (i.e., the concentration causing 50% of inhibition of Ab1-40 secretion).

Row | IC50 | Compound
25 | 0.3 to 42 µM | COc1cc(CNS(=O)(=O)c2cnc(Cl)s2)nc(-c2ccccn2)c1 [Compound 106]
26 | 0.3 to 42 µM | COc1cc(CNS(=O)(=O)c2cnc(Cl)nc2)nc(-c2ccccn2)c1 [Compound 107]
27 | 0.3 to 42 µM | COc1cc(CNS(=O)(=O)c2ccc(-c3cnco3)s2)nc(-c2ccccn2)c1 [Compound 55]
28 | 0.3 to 42 µM | COc1cc(CNS(=O)(=O)c2cc3ccccc3s2)nc(-c2ccccn2)c1 [Compound 73]
29 | 0.3 to 42 µM | COc1cc(CNS(=O)(=O)c2ccc(C(C)(C)C)cc2)nc(-c2ccccn2)c1 [Compound 88]
30 | 0.3 to 42 µM | COc1cc(CNS(=O)(=O)c2c(F)cc(OC)cc2F)nc(-c2ccccn2)c1 [Compound 85]
31 | 0.3 to 42 µM | COc1cc(CNS(=O)(=O)c2ccc(-c3ccccc3)cc2)nc(-c2ccccn2)c1 [Compound 89]
32 | 0.3 to 42 µM | COc1cc(CNS(=O)(=O)c2c(Cl)cccc2Cl)nc(-c2ccccn2)c1 [Compound 97]
33 | 0.3 to 42 µM | COc1cc(CNS(=O)(=O)c2cccc(Cl)c2F)nc(-c2ccccn2)c1 [Compound 56]
34 | 0.3 to 42 µM | COc1cc(CNS(=O)(=O)c2c(C)cccc2Cl)nc(-c2ccccn2)c1 [Compound 84]
35 | 0.3 to 42 µM | COc1cc(CNS(=O)(=O)c2ccc([N+](=O)[O-])cc2)nc(-c2ccccn2)c1 [Compound 74]
36 | 0.3 to 42 µM | COc1cc(CNS(=O)(=O)CCC(F)(F)F)nc(-c2ccccn2)c1 [Compound 86]
37 | 0.3 to 42 µM | COc1cc(CNS(=O)(=O)c2c(C)cc(C)cc2C)nc(-c2ccccn2)c1 [Compound 75]
38 | 0.3 to 42 µM | COc1cc(CNS(=O)(=O)c2ccc3c(c2)OCCO3)nc(-c2ccccn2)c1 [Compound 87]
39 | 0.3 to 42 µM | COc1cc(CNS(=O)(=O)c2ccc(C(F)(F)F)cc2[N+](=O)[O-])nc(-c2ccccn2)c1 [Compound 102]
40 | 0.3 to 42 µM | COc1cc(CNS(=O)(=O)c2cc(C(F)(F)F)ccc2F)nc(-c2ccccn2)c1 [Compound 66]

Continued, molecule first:

Row | Compound | IC50
41 | COc1cc(CNS(=O)(=O)c2cc(Cl)ccc2F)nc(-c2ccccn2)c1 [Compound 44] | 0.3 to 42 µM
42 | COc1cc(CNS(=O)(=O)c2ccccc2C#N)nc(-c2ccccn2)c1 [Compound 40] | 0.3 to 42 µM
43 | COc1cc(CNS(=O)(=O)c2ccc(C)s2)nc(-c2ccccn2)c1 [Compound 24, 5-Methyl-thiophene-2-sulfonic acid (4-methoxy-[2,2′]bipyridinyl-6-ylmethyl)-amide] | 0.3 to 42 µM
44 | COc1cc(CNS(=O)(=O)c2sc(Cl)nc2C)nc(-c2ccccn2)c1 [Compound 47] | 0.3 to 42 µM
45 | COc1ccc(S(=O)(=O)NCc2cc(OC)cc(-c3ccccn3)n2)cc1 [Compound 38, 4-Methoxy-N-(4-methoxy-[2,2′]bipyridinyl-6-ylmethyl)-benzenesulfonamide] | 0.3 to 42 µM
46 | COC(=O)c1ccc(S(=O)(=O)NCc2cc(OC)cc(-c3ccccn3)n2)o1 [Compound 51] | 0.3 to 42 µM
47 | CCN(CC)CCOc1cc(CN(Cc2cc(OCCN(CC)CC)cc(-c3ccccn3)n2)S(=O)(=O)c2cccs2)nc(-c2ccccn2)c1 [Compound 29, Thiophene-2-sulfonic acid bis-[4-(2-diethylamino-ethoxy)-[2,2′]bipyridinyl-6-ylmethyl]-amide] | 0.3 to 42 µM
48 | COc1cc(CNS(=O)(=O)c2ccc(-c3ccccn3)s2)nc(-c2ccccn2)c1 [Compound 46] | 0.3 to 42 µM
49 | COc1cc(CNS(=O)(=O)c2ccc(CNC(C)=O)s2)nc(-c2ccccn2)c1 [Compound 52] | 0.3 to 42 µM
50 | COc1cc(CNS(=O)(=O)c2ccc(-c3ccno3)s2)nc(-c2ccccn2)c1 [Compound 42] | 0.3 to 42 µM
